Experimental data from US9410956B1, “Micro-RNA profiling in ovarian cancer” (University of South Florida, priority 2008, dated 2016).

Legend:
A2780CP cells [1] = assay: MTT cell viability assay after knockdown of miR-214; format: cell-based, human; conditions: knockdown of miR-214 alone, 150 pMol oligonucleotide per well
Protocol: (§1) FIG. 4B: An image showing an MTT assay. The 2′-O-me-anti-miR-214- or scramble 2′-O-me-transfected A2780CP cells were treated with 20 uM of cisplatin or DMSO vehicle for the indicated times and examined for cell viability.
2′-O-methyl (2′-O-me) oligoribonucleotides were synthesized by Integrated DNA Technologies. The sequences of 2′-O-methyl-anti-miR-214 and -miR-199a* are: 5′-[…]-3′ (SEQ ID NO: 1) and 5′-[…] UGUA-3′ (SEQ ID NO: 3). 2′-O-me-scrambled miR (5′-[…]-3′) (SEQ ID NO: 15) was used as a control. Cells were grown in 6-well plate (1.7×10^6 cells/well) for 24 h and transfected with 150 pMol of 2′-O-me oligoribonucleotides per well using Lipofectamine 2000. RNA and protein were extracted after 72 h transfection.
(§2) A2780CP cells were transfected with 2′-O-methyl-anti-miR-214. The cells transfected with 2′-O-methyl-scramble-miR were used as control. […] Further, the cells were treated with cisplatin or vehicle DMSO.

A2780CP cells [2] = assay: Cisplatin-induced apoptosis after knockdown of miR-214 (MTT, subG1 flow cytometry); format: cell-based, human; conditions: 20 uM cisplatin
Protocol: as §1
FIG. 4C: An image showing flow cytometry. Indicated cells were treated with cisplatin or DMSO for 12 h and the subG1 population was identified by flow cytometry.
as §2

PTEN [3] = assay: Immunoblot of PTEN protein after knockdown of miR-214 in A2780CP cells; format: cell-based, human; conditions: 72 h
Protocol: (§3) FIG. 2B: An image showing miR-214 reduces PTEN protein but not mRNA levels. HIOSE-80 cells (left panels) were transfected with pcDNA3.1/V5-His-Topo-miR-214, -miR199a* and vector alone and immunoblotted with indicated antibodies (panels 1-4). The expression of miR-214 and miR-199a* was determined by qRT-PCR (panels 5 and 6). PTEN mRNA level was measured by RT-PCR (panel 8). U6 (panel 7) and GAPDH (bottom panel) were used for controls. Middle and right panels show knockdown of miR-214 inducing PTEN expression. A2780CP cells were transfected with antisense 2′-O-methyl oligonucleotide targeting miR-214 at concentration of […] (6 well plate) with Lipofectamine 2000. Anti-miR199a* and scramble 2′-O-methyl oligonucleotide were used as controls. After incubation of 72 h, cells were lysed and immunoblotted with indicated antibodies (middle).
(§4) 2′-O-methyl (2′-O-me) oligoribonucleotides were synthesized by Integrated DNA Technologies. The sequences of 2′-O-methyl-anti-miR-214 and -miR-199a* are: 5′-[…]-3′ (SEQ ID NO: 1) and 5′-[…] UGUA-3′ (SEQ ID NO: 3). 2′-O-me-scrambled miR (5′-[…]-3′) (SEQ ID NO: 15) was used as a control. Cells were grown in 6-well plate (1.7×10^6 cells/well) for 24 h and transfected with 150 pMol of 2′-O-me oligoribonucleotides per well using Lipofectamine 2000. RNA and protein were extracted after 72 h transfection. […]

miR-214 = assay: qRT-PCR of miR-214 level after 2′-O-methyl oligonucleotide transfection; format: cell-based, human; conditions: A2780CP cells, 72 h after transfection
Protocol: FIG. 4A: An image showing A2780CP, a cisplatin-resistant cell line and expressing elevated levels of endogenous miR-214, was transfected with 2′-O-me-anti-miR-214 or scramble 2′-O-me oligonucleotides and assayed with qRT-PCR with primers of miR-214 (top) and U6 (bottom).
Expression of miRNAs was also analyzed by RNase protection or mirVana qRT-PCR miRNA detection assay. For RNase protection assay, enriched small RNA was purified using the miRVana miRNA Isolation Kit (Ambion). The mirVana™ miRNA probe construction kit (Ambion) was used to synthesize the ^32P-labeled miR-214 probe. Probe hybridization and RNase protection were then carried out using the mirVana™ miRNA detection kit (Ambion) according to manufacturer's instructions. After hybridization and RNase treatment, the double-strand products were resolved in a 15% polyacrylamide 8 M urea denaturing gel and visualized using phosphoimaging and autoradiography. mirVana qRT-PCR was performed according to the manufacturer's protocol (Ambion). PCR products were analyzed by electrophoresis on a 7.5% polyacrylamide gel in 0.5×TBE and visualized by ethidium bromide staining.
2′-O-methyl (2′-O-me) oligoribonucleotides were synthesized by Integrated DNA Technologies. The sequences of 2′-O-methyl-anti-miR-214 and -miR-199a* are: 5′-[…]-3′ (SEQ ID NO: 1) and 5′-[…] UGUA-3′ (SEQ ID NO: 3). […]

Akt = assay: Immunoblot of phospho-Akt and Akt substrates after knockdown of miR-214 in A2780CP cells; format: cell-based, human; conditions: 72 h
Protocol: as §3, §4

PTEN [4] = conditions: ovarian cancer cell lines (Schondorf et al. 2004); cited from earlier work
ovarian cancer = conditions: adjuvant chemotherapy, ovarian cancer patients (Aghajanian 2004); cited from earlier work

5′-CUGCCUGUCUGUGCCUGCUGU-3′ (all 2'-O-methyl, backbone not given here) [2′-O-methyl-anti-miR-214, antisense 2′-O-methyl oligoribonucleotide targeting miR-214]
reduction of cell survival (A2780CP cells [1]): about 20%
sensitization to cisplatin-induced apoptosis (A2780CP cells [2]): considerably sensitized
protein level of PTEN (PTEN [3]): increased
level of miR-214 (miR-214): significantly decreased
phosphorylation levels of Akt and Akt substrates GSK3β and p70S6K (Akt): decreased

Nc1ncn([C@H]2C[C@H](O)[C@@H](CO)O2)c(=O)n1 [5-aza-2′ deoxycytidine]
PTEN protein expression (PTEN [4]): failed to restore

N.N.[Cl][Pt][Cl] [cisplatin]
clinical response (share of patients) (ovarian cancer): approximately 80%
